Measurements as given in PubChem BioAssay AID192 (DTP/NCI, 2004).
“And” between values parts separate entries of the source, which are not always exact repeats. Equal entries are not always repeated. Toxic doses and inconclusive results are not listed. How the source made its calls: active means survival T/C of 150% or more; inactive means T/C below 125% in these data.

System: BDF1 mice, B16 melanoma ip, median survival T/C
Assay: NCI In Vivo Anticancer Drug Screen. Data for tumor model B16 Melanoma (intraperitoneal) in B6D2F1 (BDF1) mice
Conditions: endpoint: median survival time, higher = longer survival
Summary of the method: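 Read-out: survival or tumor size, given as treated/control ratio. Controls received vehicle only; animals bore transplantable tumors.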

[1] = dose: 12.5 mg/kg/injection, schedule: Q01DX009 (ip), vehicle: Klucel (hydroxypropylcellulose) (HPC)
[2] = dose: 25.0 mg/kg/injection, schedule: Q01DX009 (ip), vehicle: Klucel (hydroxypropylcellulose) (HPC)
[3] = dose: 50.0 mg/kg/injection, schedule: Q01DX009 (ip), vehicle: Klucel (hydroxypropylcellulose) (HPC)
[4] = dose: 50.0 mg/kg/injection, schedule: Q01DX009 (ip), vehicle: saline
[5] = dose: 100.0 mg/kg/injection, schedule: Q01DX009 (ip), vehicle: Klucel (hydroxypropylcellulose) (HPC)
[6] = dose: 400.0 mg/kg/injection, schedule: Q04DX003 (ip), vehicle: Klucel (hydroxypropylcellulose) (HPC)
[7] = dose: 200.0 mg/kg/injection, schedule: Q01DX009 (ip), vehicle: Klucel (hydroxypropylcellulose) (HPC)
[8] = dose: 12.5 mg/kg/injection, schedule: Q01DX009 (ip), vehicle: saline
[9] = dose: 25.0 mg/kg/injection, schedule: Q01DX009 (ip), vehicle: saline
[10] = dose: 12.5 mg/kg/injection, schedule: Q01DX009 (ip), vehicle: saline with Tween-80
[11] = dose: 25.0 mg/kg/injection, schedule: Q01DX009 (ip), vehicle: saline with Tween-80
[12] = dose: 100.0 mg/kg/injection, schedule: Q04DX003 (ip), vehicle: Klucel (hydroxypropylcellulose) (HPC)

Measured: T/C

CCO/C=C1\SC(=S)N(c2cccc(OC)c2)C1=O
inactive: [1] 93 % of control and 98 % of control | [2] 98 % of control and 107 % of control | dose: 35.0 mg/kg/injection, schedule: Q01DX009 (ip), vehicle: saline 98 % of control | [3] 98 % of control | [4] 100 % of control | dose: 75.0 mg/kg/injection, schedule: Q01DX009 (ip), vehicle: saline 91 % of control | [5] 100 % of control and 102 % of control | dose: 265.0 mg/kg/injection, schedule: Q04DX003 (ip), vehicle: Klucel (hydroxypropylcellulose) (HPC) 101 % of control | [6] 97 % of control

O=C(NO)N/N=C/c1ccccc1
inactive: dose: 100.0 mg/kg/injection, schedule: Q04DX003 (ip), vehicle: saline with Tween-80 106 % of control | dose: 200.0 mg/kg/injection, schedule: Q04DX003 (ip), vehicle: saline with Tween-80 104 % of control | dose: 400.0 mg/kg/injection, schedule: Q04DX003 (ip), vehicle: saline with Tween-80 90 % of control

Nc1nc(N)c2c(ccc3c2ccn3Cc2cccc([N+](=O)[O-])c2)n1
inactive: dose: 1.56 mg/kg/injection, schedule: Q01DX009 (ip), vehicle: saline with Tween-80 90 % of control | dose: 3.12 mg/kg/injection, schedule: Q01DX009 (ip), vehicle: saline with Tween-80 100 % of control | dose: 6.25 mg/kg/injection, schedule: Q01DX009 (ip), vehicle: saline with Tween-80 119 % of control

C1CC[N-]CC1.C1CC[N-]CC1.[Cl][Pt+2]([Cl])([Cl])[Cl]
inactive: [3] 111 % of control | [5] 120 % of control | [7] 123 % of control

Nc1ncnc2c1c1c(=O)[nH]cnc1n2C1OC(CO)C(O)C1O (stereo unspecified)
inactive: [3] 86 % of control

CNC(C)CC1CCCCC1 (stereo unspecified)
inactive: dose: 3.12 mg/kg/injection, schedule: Q01DX009 (ip), vehicle: saline 100 % of control | dose: 6.25 mg/kg/injection, schedule: Q01DX009 (ip), vehicle: saline 100 % of control | [8] 100 % of control | [9] 95 % of control

Cc1ccc(C)c(NC(=O)Nc2ccc(Cl)cc2)c1
inactive: dose: 50.0 mg/kg/injection, schedule: Q01DX009 (ip), vehicle: gum acacia 121 % of control | dose: 100.0 mg/kg/injection, schedule: Q01DX009 (ip), vehicle: gum acacia 92 % of control | dose: 200.0 mg/kg/injection, schedule: Q01DX009 (ip), vehicle: gum acacia 98 % of control

NCC(c1ccccc1)c1ccccc1
inactive: [8] 100 % of control | [9] 91 % of control | [4] 91 % of control

COc1cc2c(c(OC)c1OC)-c1ccc(SCc3ccccc3)c(=O)cc1[C@@H](NC(C)=O)CC2
inactive: dose: 1.56 mg/kg/injection, schedule: Q01DX009 (ip), vehicle: Klucel (hydroxypropylcellulose) (HPC) 91 % of control and 111 % of control | dose: 3.12 mg/kg/injection, schedule: Q01DX009 (ip), vehicle: Klucel (hydroxypropylcellulose) (HPC) 102 % of control and 107 % of control | dose: 6.25 mg/kg/injection, schedule: Q01DX009 (ip), vehicle: Klucel (hydroxypropylcellulose) (HPC) 101 % of control and 106 % of control | [1] 109 % of control and 111 % of control | [2] 113 % of control

ClC1=C(Cl)C2(Cl)C(COc3ccc(Cl)cc3)CC1(Cl)C2(Cl)Cl (stereo unspecified)
inactive: [10] 104 % of control | [11] 88 % of control | dose: 50.0 mg/kg/injection, schedule: Q01DX009 (ip), vehicle: saline with Tween-80 95 % of control

CN1CCN(C2=C(Cl)C(=O)c3ccccc3C2=O)CC1
inactive: dose: 1.25 mg/kg/injection, schedule: Q01DX009 (ip), vehicle: saline 95 % of control | dose: 2.5 mg/kg/injection, schedule: Q01DX009 (ip), vehicle: saline 88 % of control

C[C@]12CCC(=O)C=C1CC[C@@H]1[C@@H]2C(=O)C[C@]2(C)C3=CC(=O)O[C@H]3C[C@@H]12
inactive: [10] 100 % of control | [11] 100 % of control

C=C(C)[C@@H]1CC[C@@H]2C(=CC[C@]3(C)C([C@H](C)CC/C=C(/C)C(=O)O)CC[C@@]23C)[C@@]1(C)CCC(=O)O (stereo partly specified)
inactive: dose: 22.5 mg/kg/injection, schedule: Q01DX009 (ip), vehicle: saline + alcohol 98 % of control | dose: 45.0 mg/kg/injection, schedule: Q01DX009 (ip), vehicle: saline + alcohol 98 % of control

Cc1ccc(NC(=O)c2ccccc2Cl)cc1
inactive: dose: 100.0 mg/kg/injection, schedule: Q01DX009 (ip), vehicle: saline with Tween-80 105 % of control | dose: 200.0 mg/kg/injection, schedule: Q01DX009 (ip), vehicle: saline with Tween-80 97 % of control

COC(=O)/C(C#N)=N/O
inactive: dose: 9.37 mg/kg/injection, schedule: Q04DX003 (ip), vehicle: saline with Tween-80 95 % of control | dose: 18.75 mg/kg/injection, schedule: Q04DX003 (ip), vehicle: saline with Tween-80 110 % of control | dose: 37.5 mg/kg/injection, schedule: Q04DX003 (ip), vehicle: saline with Tween-80 100 % of control | [4] 107 % of control | dose: 75.0 mg/kg/injection, schedule: Q04DX003 (ip), vehicle: saline 91 % of control | dose: 100.0 mg/kg/injection, schedule: Q01DX009 (ip), vehicle: saline 92 % of control

O=CNc1cc2ccccc2c2ccc3ccccc3c12
inactive: dose: 50.0 mg/kg/injection, schedule: Q04DX003 (ip), vehicle: Klucel (hydroxypropylcellulose) (HPC) 104 % of control | [12] 100 % of control

O=C(O)C1C2CC(O)C(C2)C1C(=O)O (stereo unspecified)
inactive: dose: 100.0 mg/kg/injection, schedule: Q04DX003 (ip), vehicle: saline 100 % of control and 94 % of control | dose: 200.0 mg/kg/injection, schedule: Q04DX003 (ip), vehicle: saline 100 % of control and 91 % of control | dose: 400.0 mg/kg/injection, schedule: Q04DX003 (ip), vehicle: saline 94 % of control

CN(C)/C=C/C(=O)c1ccccc1[N+](=O)[O-]
inactive: [5] 115 % of control | [12] 95 % of control | [7] 100 % of control | dose: 200.0 mg/kg/injection, schedule: Q04DX003 (ip), vehicle: Klucel (hydroxypropylcellulose) (HPC) 92 % of control | dose: 400.0 mg/kg/injection, schedule: Q01DX009 (ip), vehicle: Klucel (hydroxypropylcellulose) (HPC) 93 % of control | [6] 88 % of control

Cc1n(Cc2ccccc2)c2c([n+]1C)C(=O)c1ccccc1C2=O
inactive: dose: 0.13 mg/kg/injection, schedule: Q01DX009 (ip), vehicle: saline 95 % of control | dose: 0.25 mg/kg/injection, schedule: Q01DX009 (ip), vehicle: saline 95 % of control | dose: 0.5 mg/kg/injection, schedule: Q01DX009 (ip), vehicle: saline 95 % of control | dose: 1.0 mg/kg/injection, schedule: Q01DX009 (ip), vehicle: saline 87 % of control
